Data from US7964573B2, “Regulating expression of transient receptor potential channel genes” (The Regents of the University of California, priority 2005, dated 2011).
“Also recorded” adds a separate entry of the source.

Legend:
TRPC6 [1] = test: siRNA suppression of TRPC6 protein and mRNA levels in COS-7 cells; type: cell-based
Source text: (§1) In separate experiments, siRNA was used to prevent expression and translation of the TRPC6 gene in vitro. Several fragments of open reading frames in the TRPC6 gene were identified which suppressed expression of TRPC6 protein and mRNA levels. […] A scrambled siRNA vector served as a non-silencing control.

IPAH-PASMC = test: [3H]-thymidine incorporation (proliferation) in IPAH-PASMC; type: cell-based, human; settings: proliferating IPAH-PASMC, transfected
Experimental: (§2) Another aspect relates to the use of siRNA to inhibit the expression of TRPC6 gene. Human PASMC were isolated and cultured from normal subjects (normal PASMC) and subjects with IPAH (IPAH-PASMC). Levels of canonical TRP (TRPC) isoforms (mRNA and protein) were measured using RT-PCR and Western blot analysis. In addition, levels of TRPC6 in vivo were measured and compared with levels of Ki67, a nuclear protein expressed during S and G2/M phase of the cell cycle, using in situ immunofluorescence staining of proliferating PASMC (see Kuga et al. (1996) Circ. Res. 79:14-19). Cell cycle phase was determined by BrdU uptake and by [^3H]-thymidine incorporation into DNA. PASMC were incubated with [^3H]-thymidine for 16 hours following 24 hours of growth arrest and 48 hours of growth induction and measuring percent extent of radiolabel incorporation into precipitated DNA.
as §1

TRPC6 [2] = test: TRPC6 mRNA and protein expression in IPAH-PASMC after siRNA transfection (RT-PCR, Western blot); type: cell-based, human; settings: for TRPC6 protein expression: IPAH-PASMC, transfected
Experimental: as §2, §1

With “TRPC6 siRNA-2: siRNA against the TRPC6 gene, sequence AAGGTCTTTATGCAATTGCTG (SEQ ID NO: 5) (listed as DNA, chemistry not given here)” the “suppression of expression of TRPC6 protein and mRNA levels” value (TRPC6 [1]) was “most effective”, the “[3H]-thymidine incorporation (proliferation)” value (IPAH-PASMC; listed as TRPC6-siRNA) was “markedly attenuated” and the “[3H]-thymidine incorporation (proliferation)” value (IPAH-PASMC; listed as TRPC6 siRNA) was “significantly decreased; also recorded: attenuates”. The TRPC6 protein expression (TRPC6 [2]) was “significantly decreased; also recorded: attenuates”, the TRPC6 protein expression (TRPC6 [2]; listed as TRPC6 siRNA (SEQ ID NO: 5)) was “significantly inhibits” and the “TRPC6 mRNA expression level” value (TRPC6 [2]; PASMC from patients with IPAH) was “significantly inhibits”.
